Results as given in patent publication US20030161867A1, “Skin-permeable selective cyclooxygenase-2 inhibitor composition” (priority 2001, published 2003).
Where “and” joins values, the source holds several entries; their conditions need not be identical. Equal entries are not always repeated.

Assays:
[1] = Drug concentration of saturated solutions; assay type: physicochemical
Experimental: Saturated solutions of celecoxib were prepared in the following solvents: 70% aqueous ethanol (EtOH), ethanol, PEG-400 and propylene glycol (PG). The solutions were tested for skin permeation properties as described above, using 250 μl drops of each test solution.
Since different lots of skin were used to determine the skin flux of each compound, a standard was run on each skin lot and the data were normalized.
The solutions were tested for skin permeation properties as described above.

[2] = Skin permeation (skin flux) in Franz diffusion cell; assay type: in vitro ADME, human; details: saturated aqueous solution, 50° C.
[3] = Distribution of drug in epidermis and dermis after Franz cell skin permeation test; assay type: in vitro ADME, human
Text: As a way of measuring the skin permeation properties of selective COX-2 inhibitory drugs or prodrugs in dermally deliverable pharmaceutical compositions, a Franz diffusion cell was provided utilizing a human cadaver skin membrane and a 1% polysorbate 80 (Tween™ 80) solution as a receptor fluid. Frozen skin was thawed at room temperature and punched with a 20 mm puncher to provide a membrane. The receptor compartment of the Franz diffusion cell was filled with the receptor fluid and the diffusion cell was maintained at 32° C. The membrane was mounted on the receptor compartment, covered and fastened with a clamp. Air bubbles were removed from the receptor fluid, which was allowed to equilibrate for 30 minutes. A test composition was brought into contact with the membrane. The amount of drug which permeated through the membrane in a 24 hour period was determined by HPLC analysis of the receptor fluid. Each test was conducted in several replicates.
Distribution of drug in epidermis and dermis was also determined. Results are shown in Table 6, by comparison with the solution compositions of Examples 1 and 2.

[4] = Skin permeation (skin flux) in Franz diffusion cell; assay type: in vitro ADME, human; details: for Normalized skin flux: normalized to a standard run on each skin lot
Experimental: Suitable receptor fluids can be selected by one of skill in the art, but presently preferred receptor fluids are a 1% polysorbate 80 solution and a 6% polyethylene glycol (20) oleyl ether (oleth-20) solution. The receptor fluid is maintained at a suitable temperature, preferably a temperature approximating living human skin temperature. A receptor fluid temperature of 32° C. has been found suitable. The membrane is oriented so that its internal surface, i.e., the surface opposite the epidermal surface, is placed in contact with the receptor fluid. Air bubbles are removed from the receptor fluid, which is then allowed to equilibrate for 30 minutes with the membrane. A test sample of a composition is placed in contact with the epidermal surface of the membrane, and left in place for a desired period, for example 24 hours. […] The receptor compartment of the Franz diffusion cell was filled with the receptor fluid and the diffusion cell was maintained at 32° C. The membrane was mounted on the receptor compartment, covered and fastened with a clamp. Air bubbles were removed from the receptor fluid, which was allowed to equilibrate for 30 minutes. A test composition was brought into contact with the membrane. […] Each test was conducted in several replicates.

[5] = target: T1, COX-2 (Homo sapiens, UniProt P35354); details: in vitro; cited from earlier work
T1 sequence (P35354 18-604): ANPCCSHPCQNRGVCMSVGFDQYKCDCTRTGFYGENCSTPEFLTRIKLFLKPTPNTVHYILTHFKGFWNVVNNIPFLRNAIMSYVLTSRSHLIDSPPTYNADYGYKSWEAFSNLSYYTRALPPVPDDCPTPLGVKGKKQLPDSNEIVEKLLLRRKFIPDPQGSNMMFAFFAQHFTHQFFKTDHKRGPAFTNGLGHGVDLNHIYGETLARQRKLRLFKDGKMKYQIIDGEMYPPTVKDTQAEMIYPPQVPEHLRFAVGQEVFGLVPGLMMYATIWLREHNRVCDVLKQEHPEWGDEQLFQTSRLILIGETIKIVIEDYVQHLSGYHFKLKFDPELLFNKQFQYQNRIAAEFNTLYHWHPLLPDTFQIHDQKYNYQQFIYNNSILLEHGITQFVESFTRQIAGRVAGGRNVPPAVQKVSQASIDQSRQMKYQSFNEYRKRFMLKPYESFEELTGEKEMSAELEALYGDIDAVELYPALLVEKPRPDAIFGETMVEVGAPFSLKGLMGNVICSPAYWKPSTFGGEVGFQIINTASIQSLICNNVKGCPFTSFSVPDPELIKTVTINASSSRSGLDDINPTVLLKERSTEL

[6] = target: COX-1 (Homo sapiens, UniProt P23219); details: in vitro; cited from earlier work
COX-1, sequence (P23219 24-599): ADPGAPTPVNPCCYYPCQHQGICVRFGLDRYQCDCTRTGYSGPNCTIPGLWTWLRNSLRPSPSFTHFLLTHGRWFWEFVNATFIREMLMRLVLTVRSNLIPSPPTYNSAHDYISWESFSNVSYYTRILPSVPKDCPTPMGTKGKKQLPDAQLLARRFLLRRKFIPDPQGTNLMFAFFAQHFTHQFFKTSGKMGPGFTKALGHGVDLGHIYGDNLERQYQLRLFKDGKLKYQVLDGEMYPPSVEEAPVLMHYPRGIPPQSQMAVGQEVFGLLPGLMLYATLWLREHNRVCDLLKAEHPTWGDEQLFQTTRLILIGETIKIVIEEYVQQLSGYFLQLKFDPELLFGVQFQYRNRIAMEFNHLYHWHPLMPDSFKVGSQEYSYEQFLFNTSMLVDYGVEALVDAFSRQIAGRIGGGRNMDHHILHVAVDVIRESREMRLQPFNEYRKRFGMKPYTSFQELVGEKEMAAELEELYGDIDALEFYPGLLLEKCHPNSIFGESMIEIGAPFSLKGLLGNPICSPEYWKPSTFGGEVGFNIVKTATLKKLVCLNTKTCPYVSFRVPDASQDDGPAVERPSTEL

[7] = saturated solution in 70% aqueous ethanol
[8] = gel, 1% drug in 70% aqueous ethanol with 3% Klucel, 50 mg, non-occlusive
[9] = saturated solution in 70% aqueous ethanol, 250 μl, occlusive
[10] = 5% oleyl alcohol and 3% thymol in 70% aqueous ethanol, versus skin flux data in Table 2
[11] = Celecoxib + parecoxib Na composition: saturated celecoxib in 67% aqueous ethanol containing 5% parecoxib sodium
[12] = gel, 1% drug (10 mg/ml) in 70% aqueous ethanol with 3% Klucel, 50 mg applied, non-occlusive
[13] = saturated aqueous solution, 32° C.
[14] = saturated solution in 70% aqueous ethanol containing 5% oleyl alcohol and 3% thymol, 250 μl
[15] = saturated solution in 70% aqueous ethanol, 250 μl, occlusive, 24 hour period, 32° C.
[16] = saturated solution in 70% aqueous ethanol, skin donor 3
[17] = saturated solution in 70% aqueous ethanol, skin donor 4
[18] = saturated solution in PEG-400, 250 μl, 24 hour period
[19] = saturated solution in ethanol (EtOH), 250 μl, 24 hour period
[20] = saturated solution in propylene glycol (PG), 250 μl, 24 hour period
[21] = with 5% parecoxib sodium in 67% aqueous ethanol, versus Table 2 data in absence of parecoxib sodium
[22] = Valdecoxib + parecoxib Na composition: saturated valdecoxib in 67% aqueous ethanol containing 5% parecoxib sodium

| Concentration ([1]; saturated aqueous solution) | Concentration [1, 7] | Skin flux [2] | Enhancement factor [4, 10] | Skin flux [4, 11] | Skin flux [4, 13] | Skin flux [4, 14] | Normalized skin flux [4, 7] | SMILES | Drug in dermis [3, 8] | Drug in epidermis [3, 8] | Drug in dermis [3, 9] | Drug in epidermis [3, 9] | Skin flux [4, 12] | Skin flux [4, 15] | Skin flux [4, 16] | Skin flux [4, 17] | Skin flux [4, 18] | Skin flux [4, 19] | Skin flux [4, 20] | Enhancement factor [4, 21] | also measured |
| --- | --- | --- | --- | --- | --- | --- | --- | --- | --- | --- | --- | --- | --- | --- | --- | --- | --- | --- | --- | --- | --- |
| 0.5 µg/mL | 15200 µg/mL | 23.71 ± 4.42 μg/cm^2 · day | 1.4 | 183 ± 153 μg/cm^2 · day | 4.27 ± 0.84 μg/cm^2 · day | 21.7 ± 4.6 μg/cm^2 · day | 34.9 μg/cm^2 · day | Cc1ccc(-c2cc(C(F)(F)F)nn2-c2ccc(S(N)(=O)=O)cc2)cc1 [celecoxib, 4-[5-(4-methylphenyl)-3-(trifluoromethyl)-1H-pyrazol-1-yl]benzenesulfonamide] | 1.22 ± 0.51 µg | 2.36 ± 1.06 µg | 2.50 ± 1.53 µg | 3.92 ± 0.79 µg | 3.82 ± 3.36 μg/cm^2 · day | 15.7 μg/cm^2 · day and 15.7 ± 3.83 μg/cm^2 · day | 73.7 ± 11.8 μg/cm^2 · day | 31.9 ± 9.6 μg/cm^2 · day | No skin permeation | 5.62 ± 1.49 μg/cm^2 · day | No skin permeation | 11.5 | Concentration ([1]; saturated in 67% aqueous ethanol containing 5% parecoxib sodium): 15900 µg/mL; Concentration ([1]; saturated solution in PEG-400): 297000 µg/mL; Concentration ([1]; saturated solution in ethanol (EtOH)): 91400 µg/mL; Concentration ([1]; saturated solution in propylene glycol (PG)): 33300 µg/mL; Celecoxib permeation ([4]; saturated celecoxib solution in 70% ethanol, amount in receptor fluid after 15 hours): 1.406 ± 0.086 μg/cm^2; Skin flux ([4]; saturated solution in 70% aqueous ethanol, 250 μl, occlusive, 24 hour period, 32° C., listed as Celecoxib): 15.7 ± 3.83 μg/cm^2 · day; Skin flux ([4]; saturated solution in 70% aqueous ethanol, skin donor 1): 15.7 ± 3.8 μg/cm^2 · day; Skin flux ([4]; saturated solution in 70% aqueous ethanol, skin donor 6): 50.4 ± 12.7 μg/cm^2 · day; Skin flux ([4]; saturated solution in PEG-400, 250 μl, 24 hour period, listed as Celecoxib): ud; Skin flux ([4]; saturated solution in propylene glycol (PG), 250 μl, 24 hour period, listed as Celecoxib): ud |
| – | 386000 µg/mL | – | 4.8 | – | – | 1210 ± 58.0^ μg/cm^2 · day | 120.0 μg/cm^2 · day | CCC(=O)NS(=O)(=O)c1ccc(-c2c(-c3ccccc3)noc2C)cc1 [parecoxib Na] | – | – | – | – | – | 254 ± 164 μg/cm^2 · day | – | – | – | – | – | – | – |
| 50.8 µg/mL | – | 47.16 ± 3.70 μg/cm^2 · day | – | 74.7 ± 14.7 μg/cm^2 · day | 8.62 ± 1.94 μg/cm^2 · day | – | – | CCC(=O)NS(=O)(=O)c1ccc(-c2c(-c3ccccc3)noc2C)cc1 [parecoxib, N-[[4-(5-methyl-3-phenylisoxazol-4-yl)phenyl]sulfonyl]propanamide] | – | – | – | – | – | – | – | – | – | – | – | – | inhibitory activity against COX-2 [5]: weak in vitro inhibitory activity; inhibitory activity against COX-1 [6]: weak in vitro inhibitory activity; Skin flux [4, 22]: 64.1 ± 11.3 μg/cm^2 · day |

| SMILES | Concentration ([1]; saturated aqueous solution) | Concentration [1, 7] | Skin flux [2] | Enhancement factor [4, 10] | Skin flux [4, 11] | Skin flux [4, 13] | Skin flux [4, 14] | Normalized skin flux [4, 7] | Drug in dermis [3, 8] | Drug in epidermis [3, 8] | Drug in dermis [3, 9] | Drug in epidermis [3, 9] | Skin flux [4, 12] | Skin flux [4, 15] | Skin flux [4, 16] | Skin flux [4, 17] | Skin flux [4, 18] | Skin flux [4, 19] | Skin flux [4, 20] | Enhancement factor [4, 21] | also measured |
| --- | --- | --- | --- | --- | --- | --- | --- | --- | --- | --- | --- | --- | --- | --- | --- | --- | --- | --- | --- | --- | --- |
| Cc1onc(-c2ccccc2)c1-c1ccc(S(N)(=O)=O)cc1 [valdecoxib, 4-[5-methyl-3-phenylisoxazol-4-yl]benzenesulfonamide] | – | – | 42.12 ± 7.82 μg/cm^2 · day | 25 | – | 7.94 ± 0.89 μg/cm^2 · day | 323 ± 21 μg/cm^2 · day | 53.4 μg/cm^2 · day | ud | 1.81 ± 1.87 µg | 0.543 ± 0.525 µg | 9.27 ± 3.84 µg | 11.3 ± 6.48 μg/cm^2 · day | 12.8 μg/cm^2 · day and 12.8 ± 4.96 μg/cm^2 · day | 91.9 ± 15.0 μg/cm^2 · day | 58.3 ± 11.0 μg/cm^2 · day | No skin permeation | 1.44 ± 0.54 μg/cm^2 · day | No skin permeation | 8.4 | inhibitory activity against COX-1 [6]: weak inhibitor; Skin flux [4, 22]: 108 ± 16.7 μg/cm^2 · day; Skin flux ([4]; saturated solution in 70% aqueous ethanol, 250 μl, occlusive, 24 hour period, 32° C., listed as Valdecoxib): 12.8 ± 4.96 μg/cm^2 · day; Skin flux ([4]; saturated solution in 70% aqueous ethanol, skin donor 2): 12.8 ± 5.0 μg/cm^2 · day; Skin flux ([4]; saturated solution in PEG-400, 250 μl, 24 hour period, listed as Valdecoxib): ud; Skin flux ([4]; saturated solution in propylene glycol (PG), 250 μl, 24 hour period, listed as Valdecoxib): ud |
